Laboratory results as given in patent US10795976B2, “Program randomization for cyber-attack resilient control in programmable logic controllers” (Siemens Aktiengesellschaft, priority 2016, dated 2020).
Structures can show the parent of a compound that is named as a salt. Where two headings read alike, the source gives them in different places.

Assays:
C57BL/6JOlaHsd mice [1] = assay type: in vivo
[2] = tested on: CB2 receptor knockout mice; assay type: in vivo
mice = settings: 5 mg/kg during postnatal days 5-13; measured at the age of 12 weeks; cited from earlier work
C57BL/6JOlaHsd mice [3] = assay: Ear scratch response (ESR) / grooming, urge-like behavior; assay type: in vivo
Method: 1. CB2 receptor selective ligands or CB2/SERM ligands were injected intraperitoneally or orally at doses of 0.001 to 100 mg/kg one to two hours before the injection of DOI. In order to test the effect of DOI on head twitch responses, ear scratch and grooming responses, DOI was intraperitoneally injected at a dose of 1 mg/kg.
ESR behavior is a measure for urge-like behavior and often preceded HTRs. The ESR is a rapid scratching movement of the head, neck, ears, or other body surfaces by either hindlimbs. The number of ESRs was manually counted. Every ESR was also counted as a grooming. In some experiments, each ESR was considered as a separate episode if the animal moved. In some experiments, each ESR was considered as a separate episode for every ESR.
Grooming behavior is a measure for anxiety. Grooming behavior in mice is characterized by licking its fur, groom with the forepaws, or scratch with any limb. Often the mouse will mix all of these grooming behaviors. The number of grooms was manually counted. In some experiments, each grooming behavior was considered as a separate episode if the animal moved its hindlimbs. In some experiments, each grooming behavior was considered as a separate episode for every grooming behavior.

C57BL/6JOlaHsd mice [4] = assay: Marble burying test (MBT), compulsive behavior; assay type: in vivo; settings: one hour after a single injection, age 6 weeks
Method: Mice were habituated to the test room for 1 h. A mouse was injected with DOI as above and then placed in the experimental cage (white plastic 36×24.5×14.5 cm) filled with 5 cm sawdust for 5 min, in the absence of marbles. The mouse was taken out and twenty black glass were arranged 4 by 5 with 7 cm apart and 1 cm apart from the wells of the cage. Each mouse was tested for its marble burying activity for 30 min. Activity was videotaped with EthoVision and buried marbles were counted manually at the end of the experiment (after 30 min). A marble considered as buried when it was sawdust-covered by two third of its volume.
Marbles that were moved were also counted.
With a view to study the effect of the JTE-907 and M1 compositions on repetitive behavior, C57BL/6JOlaHsd mice were intraperitoneally injected at age 6 weeks with a single dose of JTE-907 at 0.2-50 mg/kg, M1 at 0.2-50 mg/kg or equivalent vehicle. The number of buried marbles in the burying marble test by each mouse was recorded.

cyclooxygenase 2 (COX-2) = target: T1, cyclooxygenase 2 (COX-2) (Homo sapiens, UniProt P35354); settings: Schuehly et al. 2011; cited from earlier work
T1 sequence (P35354 18-604): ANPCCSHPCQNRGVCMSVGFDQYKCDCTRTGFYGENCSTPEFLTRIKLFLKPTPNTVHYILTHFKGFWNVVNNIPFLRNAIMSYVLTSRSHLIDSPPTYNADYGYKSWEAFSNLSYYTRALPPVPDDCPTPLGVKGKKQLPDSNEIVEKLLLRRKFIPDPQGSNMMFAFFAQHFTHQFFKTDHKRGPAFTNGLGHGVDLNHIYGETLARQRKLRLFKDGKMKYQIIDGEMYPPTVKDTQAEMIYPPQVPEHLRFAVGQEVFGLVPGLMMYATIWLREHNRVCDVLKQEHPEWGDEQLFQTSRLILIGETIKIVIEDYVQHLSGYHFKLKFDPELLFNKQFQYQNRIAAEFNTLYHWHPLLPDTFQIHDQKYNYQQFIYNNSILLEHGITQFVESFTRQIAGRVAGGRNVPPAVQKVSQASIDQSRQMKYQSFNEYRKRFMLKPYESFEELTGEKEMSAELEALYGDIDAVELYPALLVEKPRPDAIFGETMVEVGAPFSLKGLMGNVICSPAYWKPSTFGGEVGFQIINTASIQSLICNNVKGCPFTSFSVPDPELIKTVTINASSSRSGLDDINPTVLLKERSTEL

osteoclastogenesis = settings: Schuehly et al. 2011; cited from earlier work
GPR55 = GPR55 (Homo sapiens, UniProt Q9Y2T6); settings: Schuehly et al. 2011; cited from earlier work
GPR55, sequence (Q9Y2T6 whole entry, species assumed): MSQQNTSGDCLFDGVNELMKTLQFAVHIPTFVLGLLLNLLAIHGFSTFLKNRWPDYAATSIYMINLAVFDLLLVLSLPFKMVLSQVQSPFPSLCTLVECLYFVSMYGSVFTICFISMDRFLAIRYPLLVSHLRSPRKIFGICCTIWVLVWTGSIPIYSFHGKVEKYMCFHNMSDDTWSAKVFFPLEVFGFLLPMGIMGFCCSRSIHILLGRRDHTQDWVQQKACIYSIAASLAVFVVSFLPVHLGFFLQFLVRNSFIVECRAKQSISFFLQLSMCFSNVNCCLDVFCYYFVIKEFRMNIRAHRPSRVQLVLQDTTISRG

Sabra mice = assay: Ultrasonic vocals after postnatal SR141716A (vocal tic-like behavior); assay type: in vivo
[5] = tested on: Tourette syndrome (TS) patients; settings: patient reports; cited from earlier work
[6] = 10 mg/kg i.p. single dose, one hour before DOI 1 mg/kg i.p., age 3 weeks
[7] = 0.2 mg/kg i.p. single dose, one hour before DOI 1 mg/kg i.p., age 3 weeks
[8] = 5 mg/kg i.p. single dose, one hour before DOI 1 mg/kg i.p., age 3 weeks
[9] = model inducer, 1 mg/kg i.p., age three weeks up to 21 weeks
[10] = 1-20 mg/kg i.p., no DOI, age 6 weeks

CCN(CC)CCOc1ccc(C(=C(Cl)c2ccccc2)c2ccccc2)cc1 [clomiphene citrate]
DOI-induced HTR frequency (C57BL/6JOlaHsd mice [1]; [6]): did not significantly reverse

CCCCCCC(C)(C)c1cc(OC)c([C@@H]2C=C(CO)[C@@H]3C[C@H]2C3(C)C)c(OC)c1 [HU-308, [(1R,2R,5R)-2-[2,6-dimethoxy-4-(2-methyloctan-2-yl)phenyl]-7,7-dimethyl-4-bicyclo[3.1.1]hept-3-enyl] methanol]
DOI-induced HTR frequency in CB2 receptor knockout mice ([2]; 5 mg/kg i.p., one hour before DOI 1 mg/kg i.p., male, age 6-21 weeks): significantly reduces
motor tics/head twitches in the open field test (mice): induce abnormal motor tics/head twitches
DOI-induced HTR frequency (C57BL/6JOlaHsd mice [1]; [7]): reduced
repetitive behavior (HTR) with the drug alone (C57BL/6JOlaHsd mice [1]; 0.2 mg/kg i.p., saline instead of DOI, age 3 weeks): significantly increased
DOI-induced HTR frequency (C57BL/6JOlaHsd mice [1]; [8]): reduced

COc1cc(CC(C)N)c(OC)cc1I.Cl (single isomer, unassigned; (-)) [DOI, (−)-1-(2,5-dimethoxy-4-iodophenyl)-2-aminopropane hydrochloride]
HTR frequency in CB2 receptor knockout mice ([2]; model inducer, 1 mg/kg i.p., 6 weeks old): increased
ear scratch response and grooming behavior (C57BL/6JOlaHsd mice [3]; [9]): increased
head twitch response (C57BL/6JOlaHsd mice [1]; [9]): increased

CCCCCOc1c(OC)ccc2cc(C(=O)NCc3ccc4c(c3)OCO4)c(=O)[nH]c12 [JTE-907, N-(benzo[1,3]dioxol-5-ylmethyl)-7-methoxy-2-oxo-8-pentyloxy-1,2-dihydroquinoline-3-carboxamide]
number of buried marbles (C57BL/6JOlaHsd mice [4]; 5 mg/kg i.p.): reduced
DOI-induced HTR frequency (C57BL/6JOlaHsd mice [1]; [7]): reduced
DOI-induced HTR frequency (C57BL/6JOlaHsd mice [1]; [8]): reduced

C=C1CC/C=C(\C)CC[C@@H]2[C@@H]1CC2(C)C [BCP, beta-caryophyllene]
DOI-induced repetitive head twitches (C57BL/6JOlaHsd mice [1]; dose not stated): able to reduce

C=CCc1ccc(O)c(-c2ccc(OC)c(CC=C)c2)c1 [MH, 2-(4-Methoxy-3-prop-2-enylphenyl)-4-prop-2-enylphenol]
COX-2 enzymatic activity (cyclooxygenase 2 (COX-2)): inhibits
osteoclastogenesis (osteoclastogenesis): potently inhibits
number of buried marbles (C57BL/6JOlaHsd mice [4]; 10 mg/kg i.p.): reduced
GPR55 activity (GPR55): not
urge-like response induced by the drug alone (C57BL/6JOlaHsd mice [3]; [10]): did not induce urge-like response at any dose
frequency of DOI-induced ESR behavior (urge-like behavior) (C57BL/6JOlaHsd mice [3]; i.p., one hour before DOI 1 mg/kg i.p., dose not given): reduced
DOI-induced HTRs (C57BL/6JOlaHsd mice [1]; 1 mg/kg i.p. single dose, one hour before DOI 1 mg/kg i.p., age 3 weeks): reduced
DOI-induced HTRs (C57BL/6JOlaHsd mice [1]; 1 mg/kg i.p. single dose, one hour before DOI 1 mg/kg i.p., age 6 weeks): reduced
DOI-induced HTR frequency (C57BL/6JOlaHsd mice [1]; 1 mg/kg oral (gavage) in self-emulsifying oral formulation, two hours before DOI 1 mg/kg i.p., age 3 weeks): significantly reduced
DOI-induced HTR frequency (C57BL/6JOlaHsd mice [1]; [8]): reduced
DOI-induced HTRs (C57BL/6JOlaHsd mice [1]; 5 mg/kg i.p. single dose, one hour before DOI 1 mg/kg i.p., age 6 weeks): reduced
DOI-induced HTR frequency (C57BL/6JOlaHsd mice [1]; 5 mg/kg oral (gavage) in self-emulsifying oral formulation, two hours before DOI 1 mg/kg i.p., age 3 weeks): significantly reduced
HTR induced by the drug alone (C57BL/6JOlaHsd mice [1]; [10]): did not induce HTR at any dose
effect to reverse DOI-induced HTR, comparison of ages (C57BL/6JOlaHsd mice [1]; i.p., 20 min from DOI injection, age 3 weeks vs 6 weeks): higher at age 3 weeks than 6 weeks
effect on DOI-induced HTR frequency, 1 mg/kg compared with 5 mg/kg (C57BL/6JOlaHsd mice [1]; oral formulation, age 3 weeks): greater
vocal tic-like behavior (number of ultrasonic vocal events) (Sabra mice; SR141716A 5 mg/kg s.c. postnatal day 1-3, drug 5 mg/kg s.c. at age 13 days, one hour before recording): significantly reduces

Cc1c(C(=O)NN2CCCCC2)nn(-c2ccc(Cl)cc2Cl)c1-c1ccc(Cl)cc1 [SR141716A]
vocalization of mice pups vs control litter mates (Sabra mice; administered at the age of one to two days): higher level of vocalization and/or higher number of vocals

CCCCCc1cc(O)c2c(c1)OC(C)(C)[C@@H]1CCC(C)=C[C@@H]21 [Δ^9-tetrahydrocannabinol]
tic frequency [5]: ameliorate

O=C(c1ccc(OCCN2CCCCC2)cc1)c1c(-c2ccc(O)cc2)sc2cc(O)ccc12 [raloxifene]
DOI-induced HTR frequency (C57BL/6JOlaHsd mice [1]; [6]): reduced
